According to patent US20240262844A1, “PYRIDINIUM SALTS AND METHODS OF USE” (UNIVERSITY OF WYOMING, priority 2023, published 2024):
Where a name gives a salt, the structure may show the parent alone.

Key:
HEK293T cells = experiment: In-situ chemoproteomic tryptophan profiling of live HEK293T cells (peptide-level enrichment); assay type: cell-based, Human
Procedure: Cell culture and in-situ tryptophan probe treatment: Cell lines were cultured at 37° C. with 5% C02. Human embryonic kidney 293 cells expressing a mutant version of the SV40 large T antigen (HEKT293T cells) were grown in Dulbecco's Modified Eagle Medium (DMEM, Gibco) supplemented with 10% fetal bovine serum and 1% penicillin/streptomycin. For in-situ labeling, cells were grown to 90% confluence, washed with Dulbecco's phosphate buffered saline (DPBS), treated with 100x stocks of the tryptophan probes (the pyridinium salts) in OptiMem (GibCo) to generate final concentrations (0 μM, 1 μM, 10 μM, and 100 μM) in 1% dimethylsulfoxide (DMSO). Cells were incubated for 1 hour at 37° C. with 5% C02 followed by photo-activation at the respective wavelengths for 20 minutes at 4° C. Cells were harvested with a cell scraper, washed 3× with DPBS, and pellets were stored at −80° C. until further use. The following light sources were used for photo-activation: • Pyridinium salt 1a (also called, probe 1a): wavelength=302 nm; light source=Analytikjena, UVP 3UV Lamp, 8W. • Pyridinium salt 1b (also called, probe 1b): wavelength=320 nm; light source=Analytikjena, UVP 3UV Lamp, 8W, equipped with 320 nm long-pass filter. • Pyridinium salt 2b (also called, probe 2b): wavelength=440 nm; light source=Kessil PR-160L-440 nm LED, 45W. • Pyridinium salt 2d (also called, probe 2d): wavelength=440 nm; light source=Kessil PR-160L-440 nm LED, 45W.
In-situ tryptophan probe sample processing for peptide-level characterization: Cell pellets were lysed via sonication (QSonica) at 50% amplitude, 2 seconds ON, 3 seconds OFF, 30 seconds in 40 mM HEPES pH 7.5 (4-(2-hydroxyethyl)-1-piperazineethanesulfonic acid), 1.5 mM magnesium chloride (MgCl2), 1% Sodium dodecyl sulfate (SDS), 0.8% NP-40 (also known as nonyl phenoxypolyethoxylethanol), and 1x protease inhibitors (Thermo). Protein concentration was determined by BCA (Pierce). 400 μg protein lysate were taken for copper-catalyzed azide-alkyne cycloaddition (CuAAC) reactions with 100 μM of the acid cleavable DAPBS Biotin Alkyne (Click Chemistry Tools), 250 μM copper sulfate (CuSO4), 500 μM BTTP (C20H34N10O2) (Click Chemistry Tools), and 2.5 mM ascorbate and incubated for 60 minutes at R.T. Samples were precipitated with methanol:chloroform and re-suspended in 50 mM HEPES pH 8.0 containing 1% RapiGest SF (Waters). The samples were reduced with 10 mM dithiothreitol (DTT) (Pierce) and alkylated with 25 mM iodoacetamide (Pierce). The samples were diluted down to 0.1% RapiGest SF and treated with 4 μg Trypsin/LysC (Promega) at 37° C. for 16 hours. The digested peptides were than labeled with isobaric tandem mass tag (TMT) reagents (Thermo) as specified by the manufacturer. The labeled peptides were then combined, concentrated to remove acetonitrile, and re-suspended in 50 mM HEPES pH 8.0 containing 0.2% SDS. The labeled peptides were then treated with 100 μL Neutravidin resin as a 50% slurry (Peirce) for 16 hours at R.T. The following day, the Neutravidin resin was washed extensively with 50 mM HEPES pH 8.0 containing 0.2% SDS (3×), 50 mM HEPES pH 8.0 (5x), and double-distilled water (ddH2O) (5×). The bound peptides were then cleaved from the resin by incubating with 100 μL 10% formic acid for 30 minutes (2×).
Quantitative proteomics by two-dimensional nano liquid chromatography-tandem mass spectrometry (nLC-MS/MS): For protein-level characterization, the TMT-labeled sample were reconstituted in 0.1% formic acid (FA)/2% acetonitrile for offline high-pH reversed phase separation (RP10) using a Dionex UltiMate 3000 high-performance liquid chromatography (HPLC) system with fraction collection using Chromeleon v.6.8 (Thermo) software. Separation was achieved on a Waters Xbridge C18 3.5 μm 2.1×150 mm HPLC column (Waters) using a flow rate of 250 μL min-1 and the following ternary gradient and conditions: mobile phase A=water (HPLC grade), mobile phase B=acetonitrile (HPLC grade), and mobile phase C=200 mM ammonium acetate, pH 10. […]

NPM1 = target: T1, NPM1 (Homo sapiens, UniProt P06748); experiment: In-situ labeling and enrichment of NPM1 in HEK293T cells (MS-MS, Western); assay type: cell-based
T1 construct: endogenous in cells; host or cells: HEK293T
Procedure: Cell culture and in-situ tryptophan probe treatment: Cell lines were cultured at 37° C. with 5% C02. Human embryonic kidney 293 cells expressing a mutant version of the SV40 large T antigen (HEKT293T cells) were grown in Dulbecco's Modified Eagle Medium (DMEM, Gibco) supplemented with 10% fetal bovine serum and 1% penicillin/streptomycin. For in-situ labeling, cells were grown to 90% confluence, washed with Dulbecco's phosphate buffered saline (DPBS), treated with 100x stocks of the tryptophan probes (the pyridinium salts) in OptiMem (GibCo) to generate final concentrations (0 μM, 1 μM, 10 μM, and 100 μM) in 1% dimethylsulfoxide (DMSO). Cells were incubated for 1 hour at 37° C. with 5% C02 followed by photo-activation at the respective wavelengths for 20 minutes at 4° C. Cells were harvested with a cell scraper, washed 3× with DPBS, and pellets were stored at −80° C. until further use. […]
In-situ tryptophan probe sample processing for peptide-level characterization: Cell pellets were lysed via sonication (QSonica) at 50% amplitude, 2 seconds ON, 3 seconds OFF, 30 seconds in 40 mM HEPES pH 7.5 (4-(2-hydroxyethyl)-1-piperazineethanesulfonic acid), 1.5 mM magnesium chloride (MgCl2), 1% Sodium dodecyl sulfate (SDS), 0.8% NP-40 (also known as nonyl phenoxypolyethoxylethanol), and 1x protease inhibitors (Thermo). Protein concentration was determined by BCA (Pierce). […]
In-situ tryptophan probe sample processing for protein-level identification: Cell pellets were lysed via sonication (QSonica) at 50% amplitude, 2 seconds ON, 3 seconds OFF, 30 seconds in 50 mM HEPES pH 7.5, 1.5 mM MgCl2, 1% SDS, 0.8% NP-40, and 1x protease inhibitors (Thermo). Protein concentration was determined by BCA (Pierce). […]

[1] = about 100 μM probe, 60 min 37° C., 440 nm 20 min 4° C.
[2] = chemoproteomic profiling, HEK293T cells

T1 sequence (P06748 whole entry): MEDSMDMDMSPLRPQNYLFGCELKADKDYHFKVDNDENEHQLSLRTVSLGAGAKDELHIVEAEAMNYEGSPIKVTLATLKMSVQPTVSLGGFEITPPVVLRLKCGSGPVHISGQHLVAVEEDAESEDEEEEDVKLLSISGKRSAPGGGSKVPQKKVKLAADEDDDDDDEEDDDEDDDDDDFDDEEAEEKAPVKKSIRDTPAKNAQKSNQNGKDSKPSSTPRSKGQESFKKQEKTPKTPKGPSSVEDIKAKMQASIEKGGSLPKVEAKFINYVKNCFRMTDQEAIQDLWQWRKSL

SMILES: COc1ccc2cc(-c3cc(C)[n+](N(C)C(=O)OCCCCCCN=[N+]=[N-])c(C)c3)ccc2c1 [Pyridinium salt 2d, 1-((((6-azidohexyl)oxy)carbonyl)(methyl)amino)-4-(6-methoxynaphthalen-2-yl)-2,6-dimethylpyridin-1-ium tetrafluoroborate]
- probe concentration giving measurable two-fold enrichment of Trp-modified peptides (HEK293T cells; 440 nm photoirradiation): about 10 μM
- number of Trp-modified peptide fragments showing dose-response behavior (HEK293T cells; [1]): 290
- number of unique proteins corresponding to Trp-modified peptide fragments (HEK293T cells; [1]): 209
- number of unique peptides harboring a tryptophan modification (HEK293T cells; chemoselectivity profile, in situ): 221
- plasma membrane permeation (HEK293T cells; inferred from subcellular localization of labeled proteins): readily crosses the plasma membrane
- thermal stability under whole cell culture conditions (HEK293T cells; no peptide enrichment without 440 nm photoirradiation): robust thermal stability
- selectivity for tryptophan, relative amino acid frequency taken into account (HEK293T cells; versus His, Tyr, Cys modifications, in situ): about 82%
- in-situ labeled tryptophan residue (NPM1; [2]): Trp290
- labeling of Trp288 (NPM1; [2]): not labeled
- NPM1 in enriched protein mixture (Western analysis) (NPM1; cultures irradiated with blue light in the presence of probe, protein-level enrichment): found to contain both proteins
